Where a name gives a salt, the structure may show the parent alone.
Experiments:
[1] = target: catalytic domain of PDE10A2 (Homo sapiens, UniProt Q9Y233); assay: PDE10A calorimetric activity assay; assay type: biochemical
PDE10A = settings: literature; cited from earlier work
R6/2 mice = settings: IP beginning at 4 weeks of age; cited from earlier work

catalytic domain of PDE10A2, sequence (Q9Y233 715-1055 limits assumed): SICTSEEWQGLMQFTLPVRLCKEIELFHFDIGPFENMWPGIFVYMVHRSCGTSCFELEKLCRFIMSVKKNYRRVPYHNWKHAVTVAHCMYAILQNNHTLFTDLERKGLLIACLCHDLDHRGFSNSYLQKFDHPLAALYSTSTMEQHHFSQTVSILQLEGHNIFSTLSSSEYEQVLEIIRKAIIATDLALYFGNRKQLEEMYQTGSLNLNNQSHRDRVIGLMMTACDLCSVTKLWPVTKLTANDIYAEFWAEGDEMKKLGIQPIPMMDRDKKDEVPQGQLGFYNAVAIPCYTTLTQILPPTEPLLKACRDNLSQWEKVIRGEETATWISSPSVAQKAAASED

| Structure (SMILES) | Ki [1] [µM] | inhibition mechanism, PDE10A [1] | Ligand Efficiency PDE10A ([1]; Table 1, from enthalpy array KI) [kcal mol^−1 HA^−1] | IC50 (PDE10A) [µM] | reduction of the loss of striatal size (R6/2 mice) [%] |
| --- | --- | --- | --- | --- | --- |
| CC(C)Cn1c(=O)n(C)c(=O)c2[nH]cnc21 [IBMX, 3-isobutyl-1-methylxanthine] | 17 ± 6.6 | competitive inhibition | 0.41 | 11 | – |
| CC(=O)CCCCn1c(=O)c2c(ncn2C)n(C)c1=O [Pentoxifylline, pentoxifylline] | 200 ± 60 | competitive inhibition | – | – | – |
| FC(F)(F)Cn1cc(-c2ccncc2)c(-c2ccc(OCc3ccc4ccccc4n3)cc2)n1 [TP-10] | – | – | – | – | 50 |
| COc1ccc(Cc2nccc3cc(OC)c(OC)cc23)cc1OC [Papaverine, papaverine hydrochloride] | – | competitive inhibition | – | 0.095 | – |

— paper PMC4007584 (Journal of biomolecular screening, 2013)
